From publication PMC12661400, “Oral bioavailable ITRI-148 degrades androgen receptor variants and overcomes antiandrogen resistance in advanced prostate cancer” (Neoplasia (New York, N.Y.), 2025)

Tests used:
Assay type in all cases: cell-based
AR = AR degradation by immunoblotting in CRPC cells; conditions: 10 μM
Protocol: Cell lysis, Western blotting, and AR ubiquitination were performed as described in [17]. Primary antibodies: AR (Millipore 06-680), AR-V7 (RevMAb Biosciences 31-1109-00), PSA (ABclonal A4355), NKX3-1 (Cell Signaling Technology 92998), GAPDH (Cell Signaling Technology 2118) and β-Actin (Sigma-Aldrich A5441).
Fig. 1 ITRI-148 induces degradation of both AR and AR-V7 proteins in CRPC cells. […] (B) Expression of Flag-tagged AR-V7 in 293T cells following ITRI-148 treatment. Cells transiently expressing Flag-AR-V7 were pretreated with 50 μg/mL cycloheximide for 1 hour, then exposed to ITRI-148 at the indicated concentrations for 8 hours. AR-V7 expression was detected using an anti-Flag antibody. (C) Representative immunoblots showing AR protein levels in VCaP and CWR22Rv1 cells after 48 hours of ITRI-148 treatment. An N-terminal AR antibody was used to detect both full-length AR and LBD-truncated variants (AR-V(ΔLBD)) in CWR22Rv1 cells, while AR-V7 was detected using an AR-V7-specific antibody. DC₅₀ values were calculated from normalized band intensities, and Dₘₐₓ represents the maximal degradation achieved at 10 μM ITRI-148. (D) Immunofluorescence staining of AR after 24 or 48 hours of ITRI-148 treatment, detected using an N-terminal AR antibody. […] (F) Western blot analysis of ectopically expressed wild-type (WT) and mutant Myc-tagged AR in DU145 cells following 24 hours of treatment with 10 μM ITRI-148. Quantified AR levels are as indicated. TEXT PRINTED IN THE PICTURE: (C) ITRI-148: DC50 (μM) AR CWR22Rv1: 1.23 ± 1.86; DC50 (μM) AR VCaP: 0.05 ± 0.03; DC50 (μM) AR-V7 CWR22Rv1: 1.20 ± 0.92; DC50 (μM) AR-V7 VCaP: 0.02 ± 0.02; Dmax (%) AR CWR22Rv1: 65.02 ± 19.91; Dmax (%) AR VCaP: 80.49 ± 5.61; Dmax (%) AR-V7 CWR22Rv1: 72.10 ± 3.15; Dmax (%) AR-V7 VCaP: 91.36 ± 2.05

VCaP = experiment: MTT cell viability, 7 days; conditions: Homo sapiens, 168 h
Protocol: (§1) Cells were seeded in 96-well plates and treated with drugs the next day. After 7 days, viability was assessed using MTT assay.
(§2) (C) Western blot analysis of AR and AR-V7 in C4-2B and C4-2B/MDVR cells after 48-hour ITRI-148 treatment. […] DEGs were determined relative to DMSO or pLKO.1 vector control. […] RPL13A was used for normalization. […] AR, AR-V7, and PSA expression in the drug-treated cells were detected across treatment timepoints.

CWR22Rv1 = experiment: MTT cell viability, 7 days; conditions: 168 h
Protocol: as §1, §2

LNCaP = experiment: MTT cell viability, 7 days; conditions: Homo sapiens, 168 h
Protocol: as §1, §2

LNCaP95 = experiment: MTT cell viability, 7 days; conditions: LNCaP-95, 168 h
Protocol: as §1, §2

IC50 (VCaP) [µM]	IC50 (LNCaP) [µM]	IC50 (LNCaP95) [µM]	SMILES	degradation of the AR proteins (western blot) (AR)	IC50 (CWR22Rv1) [µM]
–	–	–	CN1C(=O)CCC(N2C(=O)c3cccc(NCC(=O)N4CCC(N5CCC(C#Cc6ccc(C7CCN(C8=Nn9c(nnc9C(F)(F)F)CC8)CC7)cc6)CC5)CC4)c3C2=O)C1=O (centres unmarked) [inactive analog of ITRI-148]	failed to degrade the AR proteins	–
> 10	0.74	> 10	N#Cc1ccc(O[C@H]2CC[C@H](NC(=O)c3ccc(N4CCC(CN5CCN(c6cc7c(cc6F)C(=O)N(C6CCC(=O)NC6=O)C7=O)CC5)CC4)nn3)CC2)cc1Cl (some centres unmarked) [ARV-110, reference compound]	–	> 10
